Measured values: patent US20240368667A1, “RAPID, LABEL-FREE ANTIBIOTIC SUSCEPTIBILITY OF BACTERIA DIRECTLY FROM POSITIVE BLOOD OR BODILY FLUID/CULTURE” (priority 2021, published 2024)
≈ marks a conversion by molar mass, not a printed value. Values belong to the molecule of their own block, whether it stands above or below them.

How the values were obtained:
P. aeruginosa 77 = assay: Microbroth dilution MIC with and without sucrose recovery; type: cell-based, Pseudomonas aeruginosa; settings: MIC given as multiple of S/I/R
Experimental: (§1) Microbroth dilution for minimum inhibitory concentrations (MIC) with and without sucrose recovery. To isolate bacteria without sucrose, culture media from positive BacT/alert FA PLUS aerobic culture bottles (bioMérieux, Durham, NC) was serially diluted and plated onto LB agar (Lennox; Sigma-Aldrich, St. Louis, MO). Bacterial suspensions were prepared by resuspending colonies in CAMHB with incubation on a MaxQ 4000 incubator shaker (Thermo Fisher Scientific, Waltham, MA) at 37° C. and ˜225 rpm for 3 hours. Bacteria recovered via Method 2 were diluted 10-fold in CAMHB. Following incubation or sucrose recovery and dilution, bacterial suspensions were adjusted to ˜0.004 OD600 with CAMHB and a 50-μL aliquot distributed to each well of a 96-well plate containing CAMHB with and without clinically relevant antibiotics (2-fold dilution series). Gram-negative plates included: ceftazidime (3rd generation cephalosporin, RPI corp., Mount Prospect, IL), cefepime (4th generation cephalosporin, Chem-Impex Int'l, Wood Dale, IL), meropenem (carbapenem, Tokyo Chemical Industry, Tokyo, Japan), levofloxacin (quinolone, Alfa Aesar, Haverhill, MA), and tobramycin (aminoglycoside, MP Biomedicals LLC, Santa Ana, CA), while S. aureus plates contained: oxacillin (beta-lactam, Sigma-Aldrich, St. Louis, MO), vancomycin (glycopeptide, Santa Cruz Biotechnology, Dallas, TX), erythromycin (macrolide, Sigma-Aldrich, St. Louis, MO), clindamycin ([…]), and ciprofloxacin (fluoroquinolone, Sigma-Aldrich, St. Louis, MO). Antibiotic plates were incubated at 37° C. for 16-20 hours (gram-negative) or 35° C. for 24 hours (S. aureus), at which time, plates were removed from the incubator and visually inspected for bacterial growth. The MIC was set at the lowest antibiotic concentration at which no growth was detected.
(§2) Influence of Sucrose on Bacterial MIC. To rule out the potential effect of sucrose exposure in bacterial antibiotic susceptibility, microbroth dilution studies were performed on bacteria recovered using standard practices (i.e. plating following positive blood culture) and through selective lysis coupled with centrifugation through the sucrose cushion (Method 2).

E. coli 79 = assay: as above; type: cell-based, Escherichia coli; settings: MIC given as multiple of S/I/R; for minimum inhibitory concentration (MIC), Standard: E. coli 79 recovered by standard plating
Experimental: as §1, §2

S. aureus 78 = assay: as above; type: cell-based, Staphylococcus aureus; settings: MIC given as multiple of S/I/R; for minimum inhibitory concentration (MIC), Standard: S. aureus 78 recovered by standard plating; for minimum inhibitory concentration (MIC), Sucrose: S. aureus 78 recovered through sucrose (Method 2)
Experimental: as §1, §2

S. aureus [1] = assay: Broth microdilution (BMD) MIC; type: cell-based, Staphylococcus aureus; settings: for MIC: Staphylococcus aureus
Experimental: as §1

S. aureus [2] = assay: Direct flow cytometric AST (high-throughput flow cytometry, HTFC) of sucrose-recovered bacteria; type: cell-based, Staphylococcus aureus; settings: for MIC: Staphylococcus aureus
Experimental: AST workflow using bacteria recovered directly from positive blood culture. A 1-mL aliquot of bacteria recovered using separation method 2 was diluted 10-fold in CAMHB, the OD600 adjusted to ˜0.01, and a 50 μL aliquot distributed into each well of a 96-well plate containing CAMHB with and without ceftazidime, tobramycin, and either meropenem (E. coli and P. aeruginosa) or oxacillin (S. aureus). Following Clinical and Laboratory Standards Institute (CLSI) guidelines^33, 2% sodium chloride (NaCl) was present in wells containing oxacillin to assist in the detection of methicillin-resistant S. aureus (MRSA). […] To account for observed differences in doubling and lag times, E. coli and P. aeruginosa were incubated for 4 hours at 37° C., while S. aureus was incubated for 9 hours at 35° C. After incubation, antibiotic plates were removed from the incubator and directly stored on ice (i.e. no post-processing) until high-throughput flow cytometry (BD LSRFortessa with HTS-system, BD, Franklin Lakes, NJ). No-antibiotic controls and antibiotic-treated samples were handled identically.
MIC Determination by flow cytometry. Because antibiotic effects are observed in both the position of scatter signatures (morphology changes) and count rates (growth inhibition), a modified count rate, accounting for scatter position, was used to evaluate susceptibility. Briefly, no-antibiotic control populations (triplicate) were pooled, binned, and a convex hull boundary set at 1-standard deviation above the background (not including bins with zero counts) was drawn. […] The overlap ratio, measuring changes in morphology, was then computed by dividing the number of sample events within the no-antibiotic control boundary by the total number of events within the sample. As an increase in count rate attributed to viable bacteria in antibiotic-treated samples is not scientifically meaningful, the fractional overlap was multiplied by the minimum of the control and sample count rates to generate a modified count rate accounting for antibiotic-induced morphological changes. All modified count rates were normalized by the average of the no-antibiotic controls. For automatic MIC determination, normalized count rates corresponding to n (index of predicted MIC), n+1, n+2 were iteratively fit to a linear function with a frameshift of n+1 between iterations (FIGS. 8 and 9). […] A threshold of −0.01 instead of zero was used to mitigate the influence of small fluctuations in normalized count rates on susceptibility determinations.

E. coli = assay: Influence of sucrose on bacterial growth (OD600); type: cell-based, Escherichia coli; settings: E. coli recovered in 55% sucrose (w/v), undiluted, 37° C. with shaking
Experimental: (§3) Influence of sucrose on bacterial growth. To determine the effects of sucrose concentration on bacterial growth, bacteria recovered from positive blood cultures following Method 2 were diluted 1-fold (i.e. undiluted), 2-fold, 5-fold, 10-fold, 20-fold, and 100-fold in fresh CAMHB within a 96-well plate. The CAMHB broth inoculated with a fresh overnight culture was used as a positive control. Following dilution, samples were incubated at 37° C. with shaking, and growth was monitored at 15-min intervals via OD600 measurements using a plate reader (Hidex, Turku, Finland). To further investigate the effects of sucrose on bacterial growth, recovered bacteria-sucrose solutions were diluted 10-fold (optimal dilution factor) and growth was compared to control cultures inoculated with the original blood culture, an overnight culture, or colony resuspension without sucrose exposure. Growth (37° C. with shaking) was monitored via OD600 measurements using a Hidex plate reader.
(§4) Impact of sucrose on bacterial growth. […] Recovered bacteria within 55% sucrose (w/v) were directly or 2-fold (27.5%), 5-fold (11%), 10-fold (5.5%), 20-fold (2.75%), and 100-fold (0.55%) diluted in CAMHB and growth monitored on a plate reader set at 37° C. with medium shaking. […]

S. aureus [3] = assay: Influence of sucrose on bacterial growth (OD600); type: cell-based, Staphylococcus aureus; settings: S. aureus recovered in 55% sucrose (w/v), undiluted, 37° C. with shaking
Experimental: as §3, §4

P. aeruginosa = assay: Influence of sucrose on bacterial growth (OD600); type: cell-based, Pseudomonas aeruginosa; settings: P. aeruginosa recovered in 55% sucrose (w/v), undiluted, 37° C. with shaking
Experimental: as §3, §4

Compound: C[C@H]1COc2c(N3CCN(C)CC3)c(F)cc3c(=O)c(C(=O)O)cn1c23 [Levofloxacin, levofloxacin]
minimum inhibitory concentration (MIC), Standard (E. coli 79): >4R
minimum inhibitory concentration (MIC), Sucrose (E. coli 79; E. coli 79 recovered through sucrose (Method 2)): 4R

Compound: Cc1onc(-c2ccccc2)c1C(=O)N[C@@H]1C(=O)N2[C@@H]1SC(C)(C)[C@@H]2C(=O)O [Oxacillin, oxacillin]
susceptibility classification, BMD (S. aureus [1]; S. aureus ATCC25923): (MSSA)
susceptibility classification, BMD (S. aureus [1]; S. aureus ATCC29213): (MSSA)
susceptibility classification, BMD (S. aureus [1]; S. aureus ATCC43300): (MRSA)
susceptibility classification, BMD (S. aureus [1]; S. aureus Blood Culture A): (MSSA)
susceptibility classification, BMD (S. aureus [1]; S. aureus Blood Culture B): (MRSA)
susceptibility classification, BMD (S. aureus [1]; S. aureus NRS382): (MRSA)
susceptibility classification, BMD (S. aureus [1]; S. aureus NRS385): (MRSA)
MIC (S. aureus [1]; ATCC25923, read-out: Minimum inhibitory concentration, BMD, S. aureus ATCC25923): 0.125 µg/mL (≈ 0.311 µM)
MIC (S. aureus [1]; ATCC29213, read-out: Minimum inhibitory concentration, BMD, S. aureus ATCC29213): 0.25 µg/mL (≈ 0.623 µM)
MIC (S. aureus [1]; ATCC43300, read-out: Minimum inhibitory concentration, BMD, S. aureus ATCC43300): 16 µg/mL (≈ 39.9 µM)
MIC (S. aureus [1]; S. aureus NRS382, read-out: Minimum inhibitory concentration, BMD): > 16 µg/mL
MIC (S. aureus [1]; S. aureus NRS385, read-out: Minimum inhibitory concentration, BMD): > 16 µg/mL
MIC (S. aureus [1]; read-out: Minimum inhibitory concentration, BMD, S. aureus Blood Culture A): 0.125 µg/mL (≈ 0.311 µM)
MIC (S. aureus [1]; read-out: Minimum inhibitory concentration, BMD, S. aureus Blood Culture B): > 16 µg/mL
susceptibility classification, HTFC (S. aureus [2]; S. aureus ATCC25923, oxacillin 9 hours (35° C.)): (MSSA)
susceptibility classification, HTFC (S. aureus [2]; S. aureus ATCC29213, oxacillin 9 hours (35° C.)): (MSSA)
susceptibility classification, HTFC (S. aureus [2]; S. aureus ATCC43300, oxacillin 9 hours (35° C.)): (MRSA)
susceptibility classification, HTFC (S. aureus [2]; S. aureus Blood Culture A, oxacillin 9 hours (35° C.)): (MSSA)
susceptibility classification, HTFC (S. aureus [2]; S. aureus Blood Culture B, oxacillin 9 hours (35° C.)): (MRSA)
susceptibility classification, HTFC (S. aureus [2]; S. aureus NRS382, oxacillin 9 hours (35° C.)): MRSA
susceptibility classification, HTFC (S. aureus [2]; S. aureus NRS385, oxacillin 9 hours (35° C.)): MRSA
MIC (S. aureus [2]; 9 h, read-out: Minimum inhibitory concentration, HTFC, S. aureus Blood Culture A, oxacillin 9 hours (35° C.)): 0.125 µg/mL (≈ 0.311 µM)
MIC (S. aureus [2]; 9 h, read-out: Minimum inhibitory concentration, HTFC, S. aureus Blood Culture B, oxacillin 9 hours (35° C.)): 4 µg/mL (≈ 9.96 µM)
MIC (S. aureus [2]; ATCC25923, 9 h, read-out: Minimum inhibitory concentration, HTFC, S. aureus ATCC25923, oxacillin 9 hours (35° C.)): 0.25 µg/mL (≈ 0.623 µM)
MIC (S. aureus [2]; ATCC29213, 9 h, read-out: Minimum inhibitory concentration, HTFC, S. aureus ATCC29213, oxacillin 9 hours (35° C.)): 2 µg/mL (≈ 4.98 µM)
MIC (S. aureus [2]; ATCC43300, 9 h, read-out: Minimum inhibitory concentration, HTFC, S. aureus ATCC43300, oxacillin 9 hours (35° C.)): > 4 µg/mL
MIC (S. aureus [2]; S. aureus NRS382, oxacillin 9 hours (35° C.), read-out: Minimum inhibitory concentration, HTFC): > 4 µg/mL
MIC (S. aureus [2]; S. aureus NRS385, oxacillin 9 hours (35° C.), read-out: Minimum inhibitory concentration, HTFC): > 4 µg/mL
minimum inhibitory concentration (MIC), Standard (S. aureus 78): 4R
minimum inhibitory concentration (MIC), Sucrose (S. aureus 78): 4R

Compound: CN[C@H](CC(C)C)C(=O)N[C@H]1C(=O)N[C@@H](CC(N)=O)C(=O)N[C@H]2C(=O)N[C@H]3C(=O)N[C@H](C(=O)N[C@H](C(=O)O)c4cc(O)cc(O)c4-c4cc3ccc4O)[C@H](O)c3ccc(c(Cl)c3)Oc3cc2cc(c3O[C@@H]2O[C@H](CO)[C@@H](O)[C@H](O)[C@H]2O[C@H]2C[C@](C)(N)[C@H](O)[C@H](C)O2)Oc2ccc(cc2Cl)[C@H]1O [Vancomycin, vancomycin]
minimum inhibitory concentration (MIC), Standard (S. aureus 78): ¼S
minimum inhibitory concentration (MIC), Sucrose (S. aureus 78): ⅛S

Compound: OC[C@H]1O[C@@](CO)(O[C@H]2O[C@H](CO)[C@@H](O)[C@H](O)[C@H]2O)[C@@H](O)[C@@H]1O [sucrose, D (+)-sucrose]
bacterial growth (OD600) (E. coli): inhibiting growth completely
bacterial growth (OD600) (S. aureus [3]): inhibiting growth completely
bacterial growth (OD600) (P. aeruginosa): inhibiting growth completely

Next, values leading:

minimum inhibitory concentration (MIC), Standard (P. aeruginosa 77; P. aeruginosa 77 recovered by standard plating): ½S
minimum inhibitory concentration (MIC), Sucrose (P. aeruginosa 77; P. aeruginosa 77 recovered through sucrose (Method 2)): ¼S
minimum inhibitory concentration (MIC), Standard (E. coli 79): 2R
Compound: CO/N=C(\C(=O)N[C@@H]1C(=O)N2C(C(=O)[O-])=C(C[N+]3(C)CCCC3)CS[C@H]12)c1csc(N)n1 [Cefepime, cefepime]

minimum inhibitory concentration (MIC), Standard (S. aureus 78): 4R
minimum inhibitory concentration (MIC), Sucrose (S. aureus 78): 4R
Compound: CCC[C@@H]1C[C@@H](C(=O)N[C@@H]([C@H]2O[C@H](SC)[C@H](O)[C@@H](O)[C@H]2O)[C@H](C)Cl)N(C)C1 [Clindamycin, clindamycin]

minimum inhibitory concentration (MIC), Standard (S. aureus 78): 4R
minimum inhibitory concentration (MIC), Sucrose (S. aureus 78): 2R
Compound: CC[C@H]1OC(=O)[C@H](C)[C@@H](O[C@H]2C[C@@](C)(OC)[C@@H](O)[C@H](C)O2)[C@H](C)[C@@H](O[C@@H]2O[C@H](C)C[C@H](N(C)C)[C@H]2O)[C@](C)(O)C[C@@H](C)C(=O)[C@H](C)[C@@H](O)[C@]1(C)O [Erythromycin, erythromycin]
